Results taken from patent US20240076609A1, “COMPOSITIONS AND METHODS FOR CULTURING AND EXPANDING CELLS” (LIFE TECHNOLOGIES CORPORATION, priority 2017, published 2024).
Several values for one entry are separate records, joined by “and”; a condition that tells them apart may be missing. Identical values can stand only once.

What was measured:
Primary human T cells = test: CD8+/CD4+ phenotype with 2-DG at different time points and every feed; assay type: cell-based; details: for Fold Increase compared to Baseline: Day 10 vs Day 0 ratio
Method: FIG. 45 represents the data shown in Table 39 which highlights the fold increase in CD8+ to CD4+ ratio of T cells cultured with 2-DG at different time points and every time the cells were fed.
Phenotype: Primary human T cells were expanded for 10 days with and without 2-DG and 5% human AB serum. DYNABEADS® were removed from 2×10^6 cells by magnetic separation. Surface staining was performed with antibodies against CD3 (Invitrogen, Cat. No. CD0329), CD4 (Molecular Probes, Cat. No. A15858), CD8 (Invitrogen, Cat. No. MHCD0828). Flow cytometric analysis was performed on a Gallios flow cytometer and Kaluza software (Beckman Coulter, Indianapolis IN).

Pan CD3+ T cells = test: T cell expansion with 2-DG titration (population doublings); assay type: cell-based, human
Method: 2-Deoxy-D-Glucose Preparation: 2-Deoxy-D-Glucose (2-DG, 164.16 g/mol) was manufactured by (Acros Organics, cat. no. 111980-250). The 2-DG solution was prepared in sterile filtered water at a stock concentration of 100 mM, then aliquoted in Eppendorf tubes at a final volume of 1 mL in each tube. Cell Culture: T cell isolation: De-identified, frozen apheresis bags from normal donors were obtained from HemaCare Corp. Van Nuys, CA 91406. T cells were negatively isolated from PBMCs with the DYNABEADS® […] Human T Cells kit (Thermo Fisher Scientific, Cat. No. 11344D). T cell activation and expansion: T cells (seeding density 1×10^6 vc/mL) were activated with DYNABEADS® Human T-Expander CD3/CD28 (Thermo Fisher Scientific, Cat. No. 11141D) at a ratio of 3 beads per T cell and cultured in serum-free medium, animal origin free medium. T cells were counted on days 5, 7, 10, and 12 on a Vi-CELL XR analyzer (Beckman Coulter, Indianapolis IN) and fed with or without 2-DG (0.25 mM, 0.5 mM, 1 mM, 2 mM, and 4 mM) and 5% human AB serum to a density of 5×10^5 vc/mL on days 3, 5, and 7 and 1×10^6 vc/mL on day 10. 2-Deoxy-D-Glucose Preparation: 2-Deoxy-D-Glucose (2-DG, 164.16 g/mol) is manufactured by Acros Organics (part of Thermo Fisher Scientific). The 2-DG solution was prepared in sterile filtered water at a stock concentration of 100 mM, then aliquoted in Eppendorf tubes at a final volume of 1 mL in each tube. Cell Culture: T cell isolation: De-identified, frozen apheresis bags from normal donors were obtained from HemaCare. T cells were negatively isolated from PBMCs with the DYNABEADS® […] Human T Cells kit (Thermo Fisher Scientific, Cat. No. 11344D). T cell activation and expansion: T cells (seeding density 1×10^6 vc/mL) were activated with DYNABEADS® Human T-Expander CD3/CD28 (Thermo Fisher Scientific, Cat. No. 11141D) at a ratio of 3 beads per T cell and cultured in serum-free medium, animal origin free medium. T cells were counted on days 5, 7, 10, and 12 on a Vi-CELL XR analyzer (Beckman Coulter, Indianapolis IN) and fed with or without 2-DG (0.25 mM, 0.5 mM, 1 mM, 2 mM, and 4 mM) and 5% human AB serum to a density of 5×10^5 vc/mL on days 3, 5, and 7 and 1×10^6 vc/mL on day 10.

[1] = 0.25 mM 2-DG at Day 0, Day 10 of culture
[2] = 0.25 mM 2-DG at Day 0, after 10 days of culture
[3] = 0.25 mM 2-DG at Day 3, Day 10 of culture
[4] = 0.25 mM 2-DG at Day 3, after 10 days of culture
[5] = 0.25 mM 2-DG at Day 5, Day 10 of culture
[6] = 0.25 mM 2-DG at Day 5, after 10 days of culture
[7] = 0.25 mM 2-DG at Day 7, Day 10 of culture
[8] = 0.25 mM 2-DG at Day 7, after 10 days of culture
[9] = 0.25 mM 2-DG at Every Feed, Day 10 of culture
[10] = 0.25 mM 2-DG at Every Feed, after 10 days of culture

O=CC[C@@H](O)[C@H](O)[C@H](O)CO [2-DG, 2-Deoxy-D-Glucose]
% CD4+ (Primary human T cells; [1]): 74.78%
% CD8+ (Primary human T cells; [1]): 22.88%
% Ratios (CD8+/CD4+) (Primary human T cells; [1]): 0.31
Fold Increase compared to Baseline (Primary human T cells; 0.25 mM 2-DG at Day 0): 1.38
% CD4+ (Primary human T cells; [2]): 74.78%
% CD8+ (Primary human T cells; [2]): 22.88%
% Ratios (CD8+/CD4+) (Primary human T cells; [2]): 0.31
% CD4+ (Primary human T cells; [3]): 70.62%
% CD8+ (Primary human T cells; [3]): 25.76%
% Ratios (CD8+/CD4+) (Primary human T cells; [3]): 0.36
Fold Increase compared to Baseline (Primary human T cells; 0.25 mM 2-DG at Day 3): 1.64
% CD4+ (Primary human T cells; [4]): 70.62%
% CD8+ (Primary human T cells; [4]): 25.76%
% Ratios (CD8+/CD4+) (Primary human T cells; [4]): 0.36
% CD4+ (Primary human T cells; [5]): 76.18%
% CD8+ (Primary human T cells; [5]): 21.26%
% Ratios (CD8+/CD4+) (Primary human T cells; [5]): 0.28
Fold Increase compared to Baseline (Primary human T cells; 0.25 mM 2-DG at Day 5): 1.26
% CD4+ (Primary human T cells; [6]): 76.18%
% CD8+ (Primary human T cells; [6]): 21.26%
% Ratios (CD8+/CD4+) (Primary human T cells; [6]): 0.28
% CD4+ (Primary human T cells; [7]): 73.28%
% CD8+ (Primary human T cells; [7]): 23.91%
% Ratios (CD8+/CD4+) (Primary human T cells; [7]): 0.33
Fold Increase compared to Baseline (Primary human T cells; 0.25 mM 2-DG at Day 7): 1.47
% CD4+ (Primary human T cells; [8]): 73.28%
% CD8+ (Primary human T cells; [8]): 23.91%
% Ratios (CD8+/CD4+) (Primary human T cells; [8]): 0.33
% CD4+ (Primary human T cells; [9]): 76.76%
% CD8+ (Primary human T cells; [9]): 20.35%
% Ratios (CD8+/CD4+) (Primary human T cells; [9]): 0.27
Fold Increase compared to Baseline (Primary human T cells; 0.25 mM 2-DG at Every Feed): 1.19
% CD4+ (Primary human T cells; [10]): 76.76%
% CD8+ (Primary human T cells; [10]): 20.35%
% Ratios (CD8+/CD4+) (Primary human T cells; [10]): 0.27
Fold Increase in CD8+ to CD4+ ratio (Primary human T cells; 0.25 mM 2-DG every time cells were fed): 3 fold
Fold Increase in CD8+ to CD4+ ratio (Primary human T cells; 0.25 mM 2-DG on day 7 only): 3 fold
Cultured T Cell Population Doublings (Pan CD3+ T cells; 0.25 mM 2-DG, day 5, Table 12): 1.79
Cultured T Cell Population Doublings (Pan CD3+ T cells; 0.25 mM 2-DG, day 5, single values, Table 31): 1.44 and 1.64 and 1.57
Cultured T Cell Population Doublings (Pan CD3+ T cells; 0.25 mM 2-DG, day 7, Table 12): 3.67
Cultured T Cell Population Doublings (Pan CD3+ T cells; 0.25 mM 2-DG, day 7, single values, Table 31): 3.40 and 3.54 and 3.35
Cultured T Cell Population Doublings (Pan CD3+ T cells; 0.25 mM 2-DG, day 10, Table 12): 6.20
Cultured T Cell Population Doublings (Pan CD3+ T cells; 0.25 mM 2-DG, day 10, single values, Table 31): 4.85 and 5.70 and 5.81
Cultured T Cell Population Doublings (Pan CD3+ T cells; 0.25 mM 2-DG, day 12, Table 12): 6.49
Cultured T Cell Population Doublings (Pan CD3+ T cells; 0.25 mM 2-DG, day 12, single values, Table 31): 5.72 and 6.57 and 6.47
Cultured T Cell Population Doublings (Pan CD3+ T cells; 0.5 mM 2-DG, day 5, Table 12): 1.81
Cultured T Cell Population Doublings (Pan CD3+ T cells; 0.5 mM 2-DG, day 5, single values, Table 31): 1.40 and 1.69 and 1.04
Cultured T Cell Population Doublings (Pan CD3+ T cells; 0.5 mM 2-DG, day 7, Table 12): 4.17
Cultured T Cell Population Doublings (Pan CD3+ T cells; 0.5 mM 2-DG, day 7, single values, Table 31): 3.95 and 3.32 and 3.33
Cultured T Cell Population Doublings (Pan CD3+ T cells; 0.5 mM 2-DG, day 10, Table 12): 6.07
Cultured T Cell Population Doublings (Pan CD3+ T cells; 0.5 mM 2-DG, day 10, single values, Table 31): 5.06 and 6.28 and 6.75
Cultured T Cell Population Doublings (Pan CD3+ T cells; 0.5 mM 2-DG, day 12, Table 12): 6.16
Cultured T Cell Population Doublings (Pan CD3+ T cells; 0.5 mM 2-DG, day 12, single values, Table 31): 6.13 and 6.22 and 6.48
Cultured T Cell Population Doublings (Pan CD3+ T cells; 1 mM 2-DG, day 5, Table 12): 1.15
Cultured T Cell Population Doublings (Pan CD3+ T cells; 1 mM 2-DG, day 5, Table 25): 2.08
Cultured T Cell Population Doublings (Pan CD3+ T cells; 1 mM 2-DG, day 7, Table 12): 3.40
Cultured T Cell Population Doublings (Pan CD3+ T cells; 1 mM 2-DG, day 7, Table 25): 3.87
Cultured T Cell Population Doublings (Pan CD3+ T cells; 1 mM 2-DG, day 10, Table 12): 4.93
Cultured T Cell Population Doublings (Pan CD3+ T cells; 1 mM 2-DG, day 10, Table 25): 7.19
Cultured T Cell Population Doublings (Pan CD3+ T cells; 1 mM 2-DG, day 12, Table 12): 4.60
Cultured T Cell Population Doublings (Pan CD3+ T cells; 1 mM 2-DG, day 12, Table 25): 7.00
Cultured T Cell Population Doublings (Pan CD3+ T cells; 2 mM 2-DG, day 5, Table 12): 0.15
Cultured T Cell Population Doublings (Pan CD3+ T cells; 2 mM 2-DG, day 5, Table 25): 1.87
Cultured T Cell Population Doublings (Pan CD3+ T cells; 2 mM 2-DG, day 7, Table 12): 1.33
Cultured T Cell Population Doublings (Pan CD3+ T cells; 2 mM 2-DG, day 7, Table 25): 3.53
Cultured T Cell Population Doublings (Pan CD3+ T cells; 2 mM 2-DG, day 10, Table 12): 3.29
Cultured T Cell Population Doublings (Pan CD3+ T cells; 2 mM 2-DG, day 10, Table 25): 7.10
Cultured T Cell Population Doublings (Pan CD3+ T cells; 2 mM 2-DG, day 12, Table 12): 2.44
Cultured T Cell Population Doublings (Pan CD3+ T cells; 2 mM 2-DG, day 12, Table 25): 6.90
population doublings (Pan CD3+ T cells; 4 mM 2-DG): about 6 population doublings
Cultured T Cell Population Doublings (Pan CD3+ T cells; 4 mM 2-DG, day 5, Table 12): 2.24
Cultured T Cell Population Doublings (Pan CD3+ T cells; 4 mM 2-DG, day 5, Table 25): 1.92
Cultured T Cell Population Doublings (Pan CD3+ T cells; 4 mM 2-DG, day 7, Table 12): 3.84
Cultured T Cell Population Doublings (Pan CD3+ T cells; 4 mM 2-DG, day 7, Table 25): 3.95
Cultured T Cell Population Doublings (Pan CD3+ T cells; 4 mM 2-DG, day 10, Table 12): 6.78
Cultured T Cell Population Doublings (Pan CD3+ T cells; 4 mM 2-DG, day 10, Table 25): 7.50
Cultured T Cell Population Doublings (Pan CD3+ T cells; 4 mM 2-DG, day 12, Table 12): 6.63
Cultured T Cell Population Doublings (Pan CD3+ T cells; 4 mM 2-DG, day 12, Table 25): 7.35
expansion compared to control (Pan CD3+ T cells; 2-DG at 0.25 mM and 0.5 mM): expansion comparable to control
effect of 2-DG supplementation on T cell growth (Pan CD3+ T cells; concentrations tested 0.25-4 mM): does not affect T cell growth even with lower concentrations
